pEC50, pIC50: −log10 of the molar value. Activity calls are given as the source filed them. The rule behind the calls is not given here.
What was measured:
[1] = target: [Pyruvate dehydrogenase (acetyl-transferring)] kinase isozyme 2, mitochondrial (Homo sapiens, UniProt Q15119); test: Inhibition of PDK2 (unknown origin) using PDC E1 as substrate measured after 30 mins by kinase-glo assay
[2] = target: [Pyruvate dehydrogenase (acetyl-transferring)] kinase isozyme 3, mitochondrial (Homo sapiens, UniProt Q15120); test: Inhibition of PDK3 (unknown origin) using PDC E1 as substrate measured after 30 mins by kinase-glo assay
[Pyruvate dehydrogenase (acetyl-transferring)] kinase isozyme 3, mitochondrial, sequence (Q15120 whole entry): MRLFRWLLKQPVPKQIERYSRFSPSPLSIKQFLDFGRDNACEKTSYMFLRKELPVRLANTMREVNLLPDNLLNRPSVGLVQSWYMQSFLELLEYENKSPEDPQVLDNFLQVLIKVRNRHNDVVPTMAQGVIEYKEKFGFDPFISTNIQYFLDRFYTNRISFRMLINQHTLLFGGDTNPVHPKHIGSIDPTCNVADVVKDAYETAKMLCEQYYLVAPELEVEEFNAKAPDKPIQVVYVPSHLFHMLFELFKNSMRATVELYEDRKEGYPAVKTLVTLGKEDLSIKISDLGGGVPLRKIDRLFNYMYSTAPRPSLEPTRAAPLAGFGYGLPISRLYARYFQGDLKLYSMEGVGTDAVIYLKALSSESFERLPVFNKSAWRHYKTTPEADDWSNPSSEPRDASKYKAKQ

[3] = target: [Pyruvate dehydrogenase (acetyl-transferring)] kinase isozyme 4, mitochondrial (Homo sapiens, UniProt Q16654); test: Inhibition of PDK4 (unknown origin) using PDC E1 as substrate measured after 30 mins by kinase-glo assay
[Pyruvate dehydrogenase (acetyl-transferring)] kinase isozyme 4, mitochondrial, sequence (Q16654 whole entry): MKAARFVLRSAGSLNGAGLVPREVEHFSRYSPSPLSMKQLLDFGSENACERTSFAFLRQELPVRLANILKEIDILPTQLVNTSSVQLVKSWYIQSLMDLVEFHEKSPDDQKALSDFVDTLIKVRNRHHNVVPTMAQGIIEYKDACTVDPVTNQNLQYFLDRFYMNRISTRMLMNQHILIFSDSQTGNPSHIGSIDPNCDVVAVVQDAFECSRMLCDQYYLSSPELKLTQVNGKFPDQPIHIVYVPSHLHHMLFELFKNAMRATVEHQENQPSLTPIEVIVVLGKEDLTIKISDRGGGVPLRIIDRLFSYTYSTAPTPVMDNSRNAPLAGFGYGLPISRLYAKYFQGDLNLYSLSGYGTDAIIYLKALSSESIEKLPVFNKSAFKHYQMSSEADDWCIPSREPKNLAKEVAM

NCI-H1975 [4] = test: Cytotoxicity against human NCI-H1975 cells assessed as reduction in cell proliferation at 1 to 10 uM after 72 hrs under normoxic condition by MTT assay; assay type: cell-based; conditions: nci-h1975, 72 h
[5] = target: [Pyruvate dehydrogenase (acetyl-transferring)] kinase isozyme 1, mitochondrial (Homo sapiens, UniProt Q15118); test: Inhibition of PDK1 (unknown origin) using PDC E1 as substrate measured after 30 mins by kinase-glo assay
[Pyruvate dehydrogenase (acetyl-transferring)] kinase isozyme 1, mitochondrial, sequence (Q15118 whole entry): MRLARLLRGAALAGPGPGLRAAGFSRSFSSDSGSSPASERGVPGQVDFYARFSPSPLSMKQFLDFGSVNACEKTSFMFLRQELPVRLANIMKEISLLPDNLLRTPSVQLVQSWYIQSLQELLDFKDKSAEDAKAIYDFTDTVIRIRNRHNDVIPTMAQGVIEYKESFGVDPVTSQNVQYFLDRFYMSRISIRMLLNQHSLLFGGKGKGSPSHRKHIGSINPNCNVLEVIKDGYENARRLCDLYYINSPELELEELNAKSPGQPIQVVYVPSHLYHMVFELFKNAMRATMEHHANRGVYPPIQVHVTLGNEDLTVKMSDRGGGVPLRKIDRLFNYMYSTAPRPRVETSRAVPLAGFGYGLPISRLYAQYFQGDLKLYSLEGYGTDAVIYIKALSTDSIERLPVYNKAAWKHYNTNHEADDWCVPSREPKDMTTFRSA

NCI-H1975 [6] = test: Cytotoxicity against human NCI-H1975 cells assessed as reduction in cell proliferation after 72 hrs under hypoxic condition by MTT assay; conditions: NCI-H1975, 72 h
[7] = target: Pyruvate dehydrogenase kinase (Homo sapiens) (UniProt Q15119+Q15120+Q16654+Q15118); test: Inhibition of PDK in human NCI-H1975 cells assessed as reduction in PDC phosphorylation at 10 uM measured after 12 hrs under hypoxic condition by Western blot analysis; assay type: cell-based

| pIC50 [1] | pIC50 [2] | pIC50 [3] | pIC50 [5] | Structure (SMILES) | Activity (NCI-H1975 [4]) | pEC50 (NCI-H1975 [6]) | inhibition [7] |
| --- | --- | --- | --- | --- | --- | --- | --- |
| 5.82 | 5.41 | 5.17 |  | OCCOc1ccc(CN2CCN(Cc3ccc(F)c(F)c3)[C@@H](CCO)C2)cc1 | Non-Toxic |  |  |
| 5.59 | 5.32 | 5.06 | 6.21 | O=C(NCc1ccccc1-n1cccn1)c1cc(-c2ccccc2O)n[nH]1 | Non-Toxic | 5.37 |  |
| 5.60 | 5.11 | 4.91 | 5.90 | CN(C)CCCn1ccnc1[C@H]1CCCN(C(=O)c2ccc3cc[nH]c3c2)C1 | Non-Toxic |  |  |

More lines, now with the values behind:

| Structure (SMILES) | pIC50 [1] | pIC50 [2] | pIC50 [3] | pIC50 [5] | Activity (NCI-H1975 [4]) | pEC50 (NCI-H1975 [6]) | inhibition [7] |
| --- | --- | --- | --- | --- | --- | --- | --- |
| O=C(c1ccccc1)C(Cl)Cl |  |  |  |  |  |  | Active |
| Cc1cnc(Cl)nc1-c1ccc(N(Cc2ccc(CNC(=O)C(F)F)cc2)C(=O)c2ccc(O)cc2O)cc1 |  |  |  |  | Non-Toxic |  |  |

Source: ChEMBL document CHEMBL4368877, “Discovery of potent pyruvate dehydrogenase kinase inhibitors and evaluation of their anti-lung cancer activity under hypoxia” (Medchemcomm, 2018)
